# Assays:
# Details in all cases: incubation time: 72 h
# [1] = tested on: DU-4475; assay: normalised viability (% of control), CellTiter-Blue; higher = more viable cells (about 100 = DMSO control)
# Procedure: (§1)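 DSRT, CellTiter-Blue viability, 72 h incubation. Signal is normalised to DMSO and benzethonium chloride controls. Value is the normalised response at dose 7.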
# [2] = tested on: HDQ-P1; assay: as above
# Procedure: as §1
# [3] = tested on: MDA-MB-453; assay: as above
# Procedure: as §1
# [4] = tested on: CAL-85-1; assay: as above
# Procedure: as §1
# [5] = tested on: CAL-148; assay: as above
# Procedure: as §1
# [6] = tested on: CAL-51; assay: as above
# Procedure: as §1
# [7] = tested on: HCC1143; assay: as above
# Procedure: (§2)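 DSRT, CellTiter-Blue viability, 72 h incubation. Signal is normalised to DMSO and benzethonium chloride controls. Value is the normalised response at dose 3.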
# [8] = tested on: MDA-MB-468; assay: as above
# Procedure: as §2
# [9] = tested on: HCC1599; assay: as above
# Procedure: as §2
# [10] = tested on: MDA-MB-231; assay: as above
# Procedure: as §2
# [11] = tested on: CAL-120; assay: as above
# Procedure: as §2
# [12] = tested on: MDA-MB-453; assay: as above; remark: listed apart in the source
# Procedure: as §2
# [13] = tested on: HCC1937; assay: as above
# Procedure: as §2
# [14] = tested on: CAL-148; assay: as above; remark: listed apart in the source
# Procedure: as §2
# [15] = tested on: HCC1143; assay: normalised viability (% of control), CellTiter-Blue; higher = more viable cells (100 = DMSO, 0 = benzethonium chloride kill control)
# Procedure: (§3)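 DSRT, CellTiter-Blue viability, 72 h incubation. Signal is normalised to DMSO and benzethonium chloride controls. Value is the normalised response at dose 1.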
# [16] = tested on: BT-549; assay: as above
# Procedure: as §3
# [17] = tested on: MDA-MB-468; assay: as above
# Procedure: as §3
# [18] = tested on: DU-4475; assay: as above
# Procedure: as §3
# [19] = tested on: HCC1599; assay: as above
# Procedure: as §3
# [20] = tested on: MDA-MB-231; assay: as above
# Procedure: as §3
# [21] = tested on: MDA-MB-436; assay: as above
# Procedure: as §3
# [22] = tested on: MFM-223; assay: as above
# Procedure: as §3
# [23] = tested on: CAL-120; assay: as above
# Procedure: as §3
# [24] = tested on: HDQ-P1; assay: as above
# Procedure: as §3
# [25] = tested on: MDA-MB-453; assay: as above
# Procedure: as §3
# [26] = tested on: Hs578T; assay: as above
# Procedure: as §3
# [27] = tested on: HCC1937; assay: as above
# Procedure: as §3
# [28] = tested on: SK-BR-3; assay: as above
# Procedure: as §3
# [29] = tested on: CAL-148; assay: as above
# Procedure: as §3
# [30] = tested on: CAL-51; assay: as above
# Procedure: as §3
structure (smiles),measurement,setting,value
C=CC(=O)N1CCC[C@@H](n2nc(-c3ccc(Oc4ccccc4)cc3)c3c(N)ncnc32)C1,normalised viability,[1]; 100 nM,92.4%
same,normalised viability,[2]; 100 nM,111%
same,normalised viability,[3]; 100 nM,39.5%
same,normalised viability,[4]; 100 nM,77.3%
same,normalised viability,[5]; 100 nM,98%
same,normalised viability,[6]; 100 nM,91.9%
same,normalised viability,[7]; 10 nM,79.6%
same,normalised viability,[8]; 10 nM,102%
same,normalised viability,[9]; 10 nM,85.6%
same,normalised viability,[10]; 10 nM,90.3%
same,normalised viability,[11]; 10 nM,83.5%
same,normalised viability,[12]; 1 nM,94.4%
same,normalised viability,[13]; 10 nM,108%
same,normalised viability,[14]; 1 nM,99.5%
same,normalised viability,[15]; 0.1 nM,88.1%
same,normalised viability,[16]; 0.1 nM,118%
same,normalised viability,[17]; 0.1 nM,103%
same,normalised viability,[18]; 0.1 nM,94.8%
same,normalised viability,[19]; 0.1 nM,105%
same,normalised viability,[20]; 0.1 nM,101%
same,normalised viability,[21]; 0.1 nM,91%
same,normalised viability,[22]; 0.1 nM,99.8%
same,normalised viability,[23]; 0.1 nM,81.3%
same,normalised viability,[24]; 0.1 nM,105%
same,normalised viability,[25]; 0.1 nM,103%
same,normalised viability,[26]; 0.1 nM,119%
same,normalised viability,[27]; 0.1 nM,93.3%
same,normalised viability,[28]; 0.1 nM,90.7%
same,normalised viability,[29]; 0.1 nM,102%
same,normalised viability,[30]; 0.1 nM,93.1%
CC(=O)Nc1cccc(-n2c(=O)n(C3CC3)c(=O)c3c(Nc4ccc(I)cc4F)n(C)c(=O)c(C)c32)c1,normalised viability,[1]; 25 nM,-0.2%
same,normalised viability,[2]; 25 nM,63.6%
same,normalised viability,[3]; 25 nM,71.8%
same,normalised viability,[4]; 25 nM,60.4%
same,normalised viability,[5]; 25 nM,91.2%
same,normalised viability,[6]; 25 nM,69%
same,normalised viability,[7]; 2.5 nM,86.7%
same,normalised viability,[8]; 2.5 nM,105%
same,normalised viability,[9]; 2.5 nM,84.6%
same,normalised viability,[10]; 2.5 nM,57.7%
same,normalised viability,[11]; 2.5 nM,99.4%
same,normalised viability,[12]; 0.25 nM,106%
same,normalised viability,[13]; 2.5 nM,102%
same,normalised viability,[14]; 0.25 nM,107%
same,normalised viability,[15]; 0.025 nM,102%
same,normalised viability,[16]; 0.025 nM,104%
same,normalised viability,[17]; 0.025 nM,112%
same,normalised viability,[18]; 0.025 nM,105%
same,normalised viability,[19]; 0.025 nM,104%
same,normalised viability,[20]; 0.025 nM,105%
same,normalised viability,[21]; 0.025 nM,101%
same,normalised viability,[22]; 0.025 nM,105%
same,normalised viability,[23]; 0.025 nM,104%
same,normalised viability,[24]; 0.025 nM,105%
same,normalised viability,[25]; 0.025 nM,107%
same,normalised viability,[26]; 0.025 nM,113%
same,normalised viability,[27]; 0.025 nM,93.7%
same,normalised viability,[28]; 0.025 nM,135%
same,normalised viability,[29]; 0.025 nM,107%
same,normalised viability,[30]; 0.025 nM,98.7%
CCc1cncnc1N1CCN(Cc2nc3ccc(C(F)(F)F)cc3[nH]2)CC1,normalised viability,[1]; 1000 nM,101%
same,normalised viability,[2]; 1000 nM,95.9%
same,normalised viability,[3]; 1000 nM,96.5%
same,normalised viability,[4]; 1000 nM,101%
same,normalised viability,[5]; 1000 nM,124%
same,normalised viability,[6]; 1000 nM,87%
same,normalised viability,[7]; 100 nM,132%
same,normalised viability,[8]; 100 nM,117%
same,normalised viability,[9]; 100 nM,86.2%
same,normalised viability,[10]; 100 nM,91.6%
same,normalised viability,[11]; 100 nM,105%
same,normalised viability,[12]; 10 nM,98.8%
same,normalised viability,[13]; 100 nM,104%
same,normalised viability,[14]; 10 nM,107%
same,normalised viability,[15]; 1 nM,103%
same,normalised viability,[16]; 1 nM,98.2%
same,normalised viability,[17]; 1 nM,109%
same,normalised viability,[18]; 1 nM,93.2%
same,normalised viability,[19]; 1 nM,82.6%
same,normalised viability,[20]; 1 nM,96.8%
same,normalised viability,[21]; 1 nM,106%
same,normalised viability,[22]; 1 nM,103%
same,normalised viability,[23]; 1 nM,111%
same,normalised viability,[24]; 1 nM,106%
same,normalised viability,[25]; 1 nM,101%
same,normalised viability,[26]; 1 nM,106%
same,normalised viability,[27]; 1 nM,86.6%
same,normalised viability,[28]; 1 nM,88.8%
same,normalised viability,[29]; 1 nM,114%
same,normalised viability,[30]; 1 nM,90.8%
Cc1cnc(NC(=O)Nc2cc(Br)c(C)cc2OC[C@@H]2CNCCO2)cn1,normalised viability,[1]; 100 nM,109%
same,normalised viability,[2]; 100 nM,110%
same,normalised viability,[3]; 100 nM,88.7%
same,normalised viability,[4]; 100 nM,85.9%
same,normalised viability,[5]; 100 nM,101%
same,normalised viability,[6]; 100 nM,91.2%
same,normalised viability,[7]; 10 nM,82.5%
same,normalised viability,[8]; 10 nM,104%
same,normalised viability,[9]; 10 nM,122%
same,normalised viability,[10]; 10 nM,103%
same,normalised viability,[11]; 10 nM,87.9%
same,normalised viability,[12]; 1 nM,104%
same,normalised viability,[13]; 10 nM,127%
same,normalised viability,[14]; 1 nM,90.3%
same,normalised viability,[15]; 0.1 nM,115%
same,normalised viability,[16]; 0.1 nM,87.9%
same,normalised viability,[17]; 0.1 nM,110%
same,normalised viability,[18]; 0.1 nM,108%
same,normalised viability,[19]; 0.1 nM,114%
same,normalised viability,[20]; 0.1 nM,93.3%
same,normalised viability,[21]; 0.1 nM,119%
same,normalised viability,[22]; 0.1 nM,102%
same,normalised viability,[23]; 0.1 nM,98.6%
same,normalised viability,[24]; 0.1 nM,84.2%
same,normalised viability,[25]; 0.1 nM,99.5%
same,normalised viability,[26]; 0.1 nM,106%
same,normalised viability,[27]; 0.1 nM,93.6%
same,normalised viability,[28]; 0.1 nM,91.2%
same,normalised viability,[29]; 0.1 nM,99.8%
same,normalised viability,[30]; 0.1 nM,86.8%
NCCCNCCSP(=O)(O)O [Amifostine],normalised viability,[1]; 1000 nM,82.7%
same,normalised viability,[2]; 1000 nM,89.8%
same,normalised viability,[3]; 1000 nM,92.9%
same,normalised viability,[4]; 1000 nM,81.2%
same,normalised viability,[5]; 1000 nM,90.6%
same,normalised viability,[6]; 1000 nM,109%
same,normalised viability,[7]; 100 nM,78.3%
same,normalised viability,[8]; 100 nM,102%
same,normalised viability,[9]; 100 nM,98.2%
same,normalised viability,[10]; 100 nM,93.1%
same,normalised viability,[11]; 100 nM,90.4%
same,normalised viability,[12]; 10 nM,85.7%
same,normalised viability,[13]; 100 nM,85.5%
same,normalised viability,[14]; 10 nM,93.5%
same,normalised viability,[15]; 1 nM,81.4%
same,normalised viability,[16]; 1 nM,98%
same,normalised viability,[17]; 1 nM,111%
same,normalised viability,[18]; 1 nM,91.6%
same,normalised viability,[19]; 1 nM,110%
same,normalised viability,[20]; 1 nM,80%
same,normalised viability,[21]; 1 nM,102%
same,normalised viability,[22]; 1 nM,76.4%
same,normalised viability,[23]; 1 nM,73.3%
same,normalised viability,[24]; 1 nM,98.3%
same,normalised viability,[25]; 1 nM,97.4%
same,normalised viability,[26]; 1 nM,107%
same,normalised viability,[27]; 1 nM,91.8%
same,normalised viability,[28]; 1 nM,91.7%
same,normalised viability,[29]; 1 nM,103%
same,normalised viability,[30]; 1 nM,106%
CC[C@@H]1C(=O)N(C)c2cnc(Nc3ccc(C(=O)NC4CCN(C)CC4)cc3OC)nc2N1C1CCCC1 [BI 2536],normalised viability,[1]; 100 nM,22.3%
same,normalised viability,[2]; 100 nM,57.7%
same,normalised viability,[3]; 100 nM,29.9%
same,normalised viability,[4]; 100 nM,59.4%
same,normalised viability,[5]; 100 nM,28.3%
same,normalised viability,[6]; 100 nM,12.1%
same,normalised viability,[7]; 10 nM,62.8%
same,normalised viability,[8]; 10 nM,48.5%
same,normalised viability,[9]; 10 nM,90.9%
same,normalised viability,[10]; 10 nM,52.6%
same,normalised viability,[11]; 10 nM,34.1%
same,normalised viability,[12]; 1 nM,83.2%
same,normalised viability,[13]; 10 nM,25.9%
same,normalised viability,[14]; 1 nM,105%
same,normalised viability,[15]; 0.1 nM,109%
same,normalised viability,[16]; 0.1 nM,115%
same,normalised viability,[17]; 0.1 nM,114%
same,normalised viability,[18]; 0.1 nM,109%
same,normalised viability,[19]; 0.1 nM,83.2%
same,normalised viability,[20]; 0.1 nM,105%
same,normalised viability,[21]; 0.1 nM,112%
same,normalised viability,[22]; 0.1 nM,99%
same,normalised viability,[23]; 0.1 nM,91.8%
same,normalised viability,[24]; 0.1 nM,94%
same,normalised viability,[25]; 0.1 nM,94.7%
same,normalised viability,[26]; 0.1 nM,122%
same,normalised viability,[27]; 0.1 nM,86.5%
same,normalised viability,[28]; 0.1 nM,98.5%
same,normalised viability,[29]; 0.1 nM,98%
same,normalised viability,[30]; 0.1 nM,89.5%

# Reference: the supplement of paper PMC4862054
